Residue numbers refer to the chain shown, from its start. Blank lines part the entries; values can stand above or below the compound they belong to. Where a SMILES comes first, the peptide text is derived from it. Bridges are numbered along the chain shown (N, C = ends). [ ]: non-standard residue; d: D form. Dap(N3) = [N-]=[N+]=NC[C@H](N)C(=O)O
Key:
U2OS cells = experiment: cells; assay type: cell-based, human; conditions: Homo sapiens, 96 h; U2OS cells, 4 day incubation, SYTOX green imaging, average of at least four independent repeats; read-out: GI50
Experimental: (§1) page 47: 1.5. Biological experimental 1.5.1. […] The experiment was performed in duplicates. 1.5.2. […] 1.5.3. […] 46

HCT116 cells = experiment: cells; assay type: cell-based, human; conditions: Homo sapiens, HCT-116, 96 h; HCT116 cells, 4 day incubation, SYTOX green imaging, average of at least four independent repeats; read-out: GI50
Experimental: as §1

CK2α [1] = target: T1, CK2α (Homo sapiens, UniProt P68400); experiment: Fluorescence polarisation assay: displacement of fluorescein-labelled CK2β-derived probe from CK2α; assay type: binding; conditions: FP, 15 µM test compound, 450 nM CK2α, 7.4 nM CK2β_pep probe, 350 mM NaCl, 20 mM Mes pH 6.5, 30 min incubation, triplicates; approximate; read-out: % inhibition at 15 μM (CK2β-like probe displacement)
T1 construct: CK2α_WT was used (residues 2-329); His6 (N, cleaved yes); made in house; host or cells: Escherichia coli BL21(DE3)
T1 sequence (P68400 2-329): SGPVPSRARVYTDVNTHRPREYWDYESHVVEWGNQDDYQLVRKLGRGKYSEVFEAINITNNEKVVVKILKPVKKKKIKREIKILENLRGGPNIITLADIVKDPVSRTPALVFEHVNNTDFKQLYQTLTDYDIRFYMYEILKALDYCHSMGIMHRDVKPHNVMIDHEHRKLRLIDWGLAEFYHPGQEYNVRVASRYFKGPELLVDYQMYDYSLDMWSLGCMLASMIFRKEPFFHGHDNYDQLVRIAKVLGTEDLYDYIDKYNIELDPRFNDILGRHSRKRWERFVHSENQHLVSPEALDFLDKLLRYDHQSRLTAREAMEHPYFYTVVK
Description: Molecular modelling identified Cys2 and Gly11 of Pc,[34] corresponding to P185 and P194 of CK2β, as suitable residues to staple: they make negligible contributions to the binding and are positioned at a suitable distance from each other to accommodate a 2C-CuAAC staple (ESI, Fig. S1 ^†). To cyclise the peptide, azido amino acids bearing one-carbon-atom side chains (Fmoc-Aza-OH) were used in combination with aliphatic linkers of different lengths as proposed by molecular modelling (Fig. 2 and ESI Table S1 ^†). The ability of the synthesised macrocycles to disrupt the α/β PPI of CK2 was then tested in a preliminary fluorescent polarisation assay (FP) (Fig. 2). […]
(§2) lysed using a high-pressure homogeniser.
(§3) The soluble supernatant was applied on a […]
(§4) mM NaCl, 1mM DTT, 1mM EDTA, pH 8.5). 100µL of the precision protease was loaded onto the […]
Pure protein was concentrated to 15 mg/mL and flash frozen in liquid N2.
1.4.2. Fluorescent Polarisation anisotropy
Approximate % inhibition of
The experiment was performed in triplicates.
(§5) 1.4.3. Isothermal Calorimetry Titration
(§6) 1.4.3.1. Direct binding assay
(§7) DMSO) and concentrated to 20-50 μM. Compounds in 100× stock solutions were diluted into the […]
(§8) Control titrations were performed, and the […]

[2] = pH 6.5
CK2α/CK2β interaction = target: T2, CK2α/CK2β interaction (Homo sapiens, UniProt P68400); experiment: ITC competition assay: CK2β binding to CK2α alone and in the presence of peptide; conditions: 25°C
T2 construct: CK2α_WT was used (residues 2-329); His6 (N, cleaved yes); made in house; host or cells: Escherichia coli BL21(DE3)
T2 sequence (P68400 2-329): T1 sequence (P68400 2-329)
Experimental: We then wanted to investigate whether the peptides would be able to inhibit the binding of the β subunit to the α subunit. To this end, the binding affinity of the regulatory β subunit for the catalytic domain was determined via ITC (Kd 9 nM). This was then repeated in the presence of 100 μM P1-C4 and P2-C4 (ESI, Table S4 ^†). […] As one of the key roles of CK2β is to recruit substrates to the kinase, the effect of PPI inhibition on substrate phosphorylation was studied using CK2β dependent and independent substrates. […] It should be noted that the kinase assay was performed using the pre-formed CK2α/β complex as the ability of CK2α to phosphorylate eIF2β requires the presence of the CK2β subunit.
1.4.3.2. Competition assay […]
concentrated to 4-6 μM. CK2β (9.3 mg/mL, 20 mM Tris pH 8.5, 500 mM NaCl) was diluted in Tris buffer (200 mM, NaCl, 300 mM, 10% DMSO) and concentrated to 40 μM. In a typical experiment, […]
performed at 150 second intervals. The syringe was loaded with CK2β and rotated at 750 rpm. The same experiment was repeated in the presence of the peptide s: compounds at 1 mM in DMSO were added to the solutions of CK2α and CK2β (prepared as described above) to a final concentration of […]
binding model using Origin software. […]
(CK2β-RAD) 200s, baseline 120s (assay buffer), control loading 200s (RAD), baseline 150s (assay buffer), ligand binding (association) 400s (CK2α K74A and CAM7117) and ligand dissociation 600s (assay buffer), followed by regeneration and next cycles. […]
GraphPad. The results are the average of 4 repeats and error shown as SEM.
Figure S10- Sensorgrams of the BLI competition experiments to assess the ability of P2-C4 to […] the CK2α/CK2β-RAD complex. a) Concentration of peptide ranging from 10 to 0.025 μM and 0 μM. b) Concentration of peptide ranging from 10 to 5 nM and 0 nM.
(1 picture or pasted object on this page, not shown here)

CK2α [3] = target: T3, CK2α (Homo sapiens, UniProt P68400, K74A/K75A/K76A/R21S); experiment: Isothermal titration calorimetry, direct binding to CK2α; conditions: ITC, 25°C, CK2α_KA, Tris 200 mM, NaCl 300 mM, 10% DMSO, single site binding model
T3 construct: CK2α_KA (residues 2 -329) contained four; His6 (N, cleaved yes); made in house; host or cells: Escherichia coli BL21(DE3)
T3 sequence (P68400 2-329 R21S/K74A/K75A/K76A): T1 sequence (P68400 2-329) with R20S, K73A, K74A, K75A
Experimental: as §2, §3, §4
Pure protein was concentrated to 15 mg/mL and flash frozen in liquid N2. […]
as §5, §6, §7, §8

Compound: O=C(O)c1ccc2c(c1)nc(Nc1cccc(Cl)c1)c1ccncc12 [CX4945, reference compound]
GI50 (U2OS cells): 7 ± 1 µM
GI50 (HCT116 cells): 14 ± 2 µM

inhibition at 15 µM (CK2α [1]): 0.6 ± 0.5%
Compound: CC[C@H](C)[C@@H]1NC(=O)[C@H](CCCCN)NC(=O)[C@H](Cc2ccccc2)NC(=O)CNC(=O)[C@H](Cc2ccc(O)cc2)NC(=O)[C@H](CC(C)C)NC(=O)[C@H](CCCNC(=N)N)NC(=O)[C@@H](NC(C)=O)Cn2cc(nn2)CCc2cn(nn2)C[C@@H](C(N)=O)NC(=O)[C@H](Cc2c[nH]cn2)NC1=O [P0-C1]

Solubility under the assay conditions [2]: insoluble
Compound: CC[C@H](C)[C@@H]1NC(=O)[C@H](CCCCN)NC(=O)[C@H](Cc2ccccc2)NC(=O)CNC(=O)[C@H](Cc2ccc(O)cc2)NC(=O)[C@H](CC(C)C)NC(=O)[C@H](CCCNC(=N)N)NC(=O)[C@@H](NC(=O)CNC(C)=O)Cn2cc(nn2)Cc2cn(nn2)C[C@@H](C(=O)NCC(=O)NCC(N)=O)NC(=O)[C@H](Cc2c[nH]cn2)NC1=O [P1-C3]

Binding of CK2β to CK2α in the presence of peptide (CK2α/CK2β interaction; 100 μM peptide, preliminary assay): no binding of CK2β to CK2α was detected
inhibition at 15 µM (CK2α [1]): 93 ± 1%
Kd (CK2α [3]): 0.46 µM
Compound: CC[C@H](C)[C@@H]1NC(=O)[C@H](CCCCN)NC(=O)[C@H](Cc2ccccc2)NC(=O)CNC(=O)[C@H](Cc2ccc(O)cc2)NC(=O)[C@H](CC(C)C)NC(=O)[C@H](CCCNC(=N)N)NC(=O)[C@@H](NC(=O)CNC(C)=O)Cn2cc(nn2)-c2cc(C(=O)O)cc(c2)-c2cn(nn2)C[C@@H](C(=O)NCC(=O)NCC(N)=O)NC(=O)[C@H](Cc2c[nH]cn2)NC1=O [P1-C4]

Kd (CK2α [3]): 44 µM
Compound: CC(=O)NCC(=O)N[C@@H](CN=[N+]=[N-])C(=O)N[C@@H](CCCNC(=N)N)C(=O)N[C@@H](CC(C)C)C(=O)N[C@@H](Cc1ccc(O)cc1)C(=O)NCC(=O)N[C@@H](Cc1ccccc1)C(=O)N[C@@H](CCCCN)C(=O)N[C@@H](Cc1c[nH]c2ccccc12)C(=O)N[C@@H](Cc1c[nH]cn1)C(=O)N[C@@H](CN=[N+]=[N-])C(=O)NCC(=O)NCC(N)=O [P2] (Ac-G[Dap(N3)]RLYGFKWH[Dap(N3)]GG-NH2)

Kd (CK2α [3]): 1 µM
Compound: CC[C@H](C)[C@@H]1NC(=O)[C@H](CCCCN)NC(=O)[C@H](Cc2ccccc2)NC(=O)CNC(=O)[C@H](Cc2ccc(O)cc2)NC(=O)[C@H](CC(C)C)NC(=O)[C@H](CCCNC(=N)N)NC(=O)[C@@H](NC(=O)CNC(C)=O)CSSC[C@@H](C(=O)NCC(N)=O)NC(=O)CNC(=O)[C@H](Cc2c[nH]cn2)NC1=O [Pc, reference compound] (Ac-GCRLYGFKIHGCG-NH2; disulfide 2-12)

Compound: CK2β: regulatory β subunit of CK2, recombinant construct (1-198)
Kd (CK2α/CK2β interaction; CK2β in the syringe, CK2α in the cell, no peptide, read-out: Kd of the regulatory β subunit for the catalytic domain CK2α): 0.009 µM

Solubility under the assay conditions [2]: insoluble
Compound: GXC2RLYGFKIHXC2GG (sidechain bridge or staple) [P1-C2]
